Where two headings read alike, the source gives them in different places. Where no end group is shown, it is not given here. Where only a bound is given, the exact number is not on record here.

The subject of data set [1] is human red blood cells (hRBCs). Conditions: red cells of human, 1 h.
Description: (§3) The hemolytic activity of each peptide was evaluated using a modified method, as described previously[21][22]. […] Then, the collected hRBCs were washed three times with PBS (pH 7.2), centrifuged at 1000 × g for 5 min, and resuspended in PBS (final concentration, approximately 1%). Next, 50 μL of the hRBC suspension was placed into a 96-well cell culture plate with 50 μL of test peptide solution in PBS at different concentrations, and the mixture was incubated at 37 °C for 1 h. After incubation, the plate was centrifuged at 1000 × g for 5 min, the supernatant was transferred to a new 96-well cell culture plate, and the release of hemoglobin was measured by monitoring optical density (OD) at 576 nm. Untreated hRBCs suspension was used as a negative control, and the hRBCs treated with 0.1% Triton X-100 were employed as positive controls. Each test was reproduced at least 3 times using 6 replicates. Percent hemolysis was calculated using the following equation:
Another data set deals with S. epidermidis ATCC12228. The class given is cell-based, Staphylococcus epidermidis. To be noted: ATCC12228, 5 h.
A further data set concerns S. typhimurium ATCC14028. The class given is cell-based, Salmonella typhimurium. To be noted: ATCC14028, 5 h. As to the method:
(§1) Minimal bactericidal concentrations (MBCs) were measured using the method which has been adopted from National Committee for Clinical Laboratory Standards (NCCLS), with modifications. In short, 50 μL peptide solutions were pipetted into microtiter plates at various concentrations ranging from 1 to 128 μM. Freshly grown bacteria were added to the each well in a density of 0.5–1 × 10^6 CFUmL^−1. Microtiter plated was incubated at 37 °C for 5 h. Fifty microliters of each incubation mixture was further serially diluted (up to 10^−3 of the initial bacterial concentration), transferred on agar plates and incubated overnight. On the following day, the number of colonies was evaluated and the initial CFU/well retrospectively calculated. The minimum bactericidal concentrations (μM) were determined as the lowest concentration of the peptides that prevented more than 99.9% bacteria growth.

The next data set deals with S. aureus ATCC29213. The class given is cell-based, Staphylococcus aureus. Conditions: ATCC 29213, 5 h. How it is done: as §1
In data set [2] the test system is E. coli ATCC 25922. The class given is cell-based, Escherichia coli. To be noted: ATCC 25922, 5 h. How it is done:
as §1

A further data set has as its system E. coli UB1005. The class given is cell-based, Escherichia coli. To be noted: UB1005, 5 h. As to the method:
as §1

For data set [3], the system named is all of the 6 strains tested. Briefly: Geometric mean of MBCs and therapeutic index, all strains. The class given is cell-based. Conditions: MHC/GM for all 6 strains; >128 counted as 256 μM. How it is done:
as §1, with “In” for “Minimal bactericidal concentrations (MBCs) were measured using the method which has been adopted from National Committee for Clinical Laboratory Standards (NCCLS), with modifications. In”
(§2) The therapeutic index (TI) is calculated by the ration of the minimum hemolytic concentration (MHC) to the geometric mean of the MBC (GM) to evaluate cell selectivity of peptides.

Data set [4] has as its system 3 gram-positive strains tested. Conditions: MHC/GM for 3 gram-positive strains; >128 counted as 256 μM. How it is done: as §1, with “In” for “Minimal bactericidal concentrations (MBCs) were measured using the method which has been adopted from National Committee for Clinical Laboratory Standards (NCCLS), with modifications. In”
as §2

The subject of data set [5] is 3 gram-negative strains tested. In words: Geometric mean of MBCs and therapeutic index, gram-negative strains. The class given is cell-based. To be noted: MHC/GM for 3 gram-negative strains; >128 counted as 256 μM. How it is done: as §1, with “In” for “Minimal bactericidal concentrations (MBCs) were measured using the method which has been adopted from National Committee for Clinical Laboratory Standards (NCCLS), with modifications. In”
as §2

Data set [6] has as its system E. coli ATCC 25922. The class given is cell-based, Escherichia coli. As to the method:
as §1, with “In short, 50 μL peptide solutions were pipetted into microtiter plates at various concentrations ranging from 1 to 128 μM.” left out, “growth. […] The salt sensitivity of the peptides was measured using a modified method, as described previously. […] The subsequent steps were consistent with the MBCs determination method.” for “growth.”

Data set [7] has as its system E. coli ATCC 25922. The class given is cell-based, Escherichia coli. Conditions: ATCC 25922, 24 h. How it is done:
The checkerboard titration method is commonly used to evaluate the synergy of different antibacterial combinations. First, 2-fold serial dilutions of the antibiotics and antimicrobial peptides were prepared. Subsequently, 50 μL each of different concentrations of antibiotics and of antimicrobial peptides was mixed and added into 100 μL of bacterial solution (containing approximately 0.5–1 × 10^6 CFU mL^−1) in each well of a 96-well plate. The plates were then incubated at 37 °C for 24 h. The subsequent steps were consistent with the MBCs determination method. The fractional inhibitory concentration (FIC) index (FICI) was calculated as follows: An FICI < 0.5 is considered to indicate synergy; 0.5 < FICI < 1.0 is considered additive; 1.0 < FICI < 4.0 is considered indifferent; and an FICI > 4.0 is considered antagonism.

Data set [8] relates to Methicillin-resistant S. aureus ATCC 43300. To be noted: S. aureus 43300 (methicillin-resistant); lowest concentration preventing more than 99.9% growth; 37 °C, 5 h; representative of three trials. How it is done:
as §1, with “In” for “Minimal bactericidal concentrations (MBCs) were measured using the method which has been adopted from National Committee for Clinical Laboratory Standards (NCCLS), with modifications. In”

The next data set deals with S. aureus ATCC 29213. The class given is cell-based, Staphylococcus aureus. To be noted: ATCC 29213, 5 h. How it is done: as §1, with “In short, 50 μL peptide solutions were pipetted into microtiter plates at various concentrations ranging from 1 to 128 μM.” left out, “growth. […] The salt sensitivity of the peptides was measured using a modified method, as described previously. […] The subsequent steps were consistent with the MBCs determination method.” for “growth.”

Data set [9] has as its system human red blood cells (hRBCs). Briefly: Hemolytic activity. To be noted: concentration causing 5% hemolysis of human red blood cells; about 1% hRBC in PBS, 37 °C, 1 h, OD 576 nm.
Description: as §3
Data set [10] concerns the molecule itself. Briefly: FRET or BRET; FAM-labeled GG3 (donor) with TAMRA-labeled GG3 (acceptor) and unlabeled GG3, in POPG or POPC/POPG (3:1) vesicles; total peptide and FAM-peptide concentrations kept constant, mole fraction of TAMRA-peptide varied; 10 mM Tris, 150 mM NaCl, 0.1 mM EDTA, pH 7.4; excitation 492 nm; membrane-bound state. Background: In BRET a luciferase serves as donor, and the signal depends on an acceptor being close.

Description for S. epidermidis ATCC12228: In short, 50 μL peptide solutions were pipetted into microtiter plates at various concentrations ranging from 1 to 128 μM. Freshly grown bacteria were added to the each well in a density of 0.5–1 × 10^6 CFUmL^−1. Microtiter plated was incubated at 37 °C for 5 h. Fifty microliters of each incubation mixture was further serially diluted (up to 10^−3 of the initial bacterial concentration), transferred on agar plates and incubated overnight. On the following day, the number of colonies was evaluated and the initial CFU/well retrospectively calculated. The minimum bactericidal concentrations (μM) were determined as the lowest concentration of the peptides that prevented more than 99.9% bacteria growth. Each test was reproduced at least 3 times using 6 replicates.

In the case of AKLWLKA-NH2 [AA1], the “MHC (minimum hemolytic concentration)” value in data set [1] was greater than 128 µM. The Minimum bactericidal concentration with S. epidermidis ATCC12228, with S. typhimurium ATCC14028, in the data set with S. aureus ATCC29213, in the data set with E. coli ATCC 25922 [2] and with E. coli UB1005 was greater than 128 µM each time.
Take GKLWGLKGKLWGLKGKLWGLK-NH2 [GG3s1]: the “MHC (minimum hemolytic concentration)” value in data set [1] was greater than 128 µM. The “TI (therapeutic index), all strains” value in data set [3] is 8.98. In addition, the Minimum bactericidal concentration was determined as 128 µM in the data set with S. epidermidis ATCC12228; 16 µM in the data set on S. typhimurium ATCC14028; 128 µM in the data set on S. aureus ATCC29213; 4 µM in the data set on E. coli ATCC 25922 [2]; 4 µM in the data set on E. coli UB1005. In addition, in [4], the “TI (therapeutic index), gram-positive” value came out at 2. The “TI (therapeutic index), gram-negative” value in data set [5] was found to be 40.31.
As for GKLWLKG-NH2 [GG1], the “MHC (minimum hemolytic concentration)” value in data set [1] was greater than 128 µM. Besides, the Minimum bactericidal concentration with S. epidermidis ATCC12228, in the data set with S. typhimurium ATCC14028, in the data set on S. aureus ATCC29213, in the data set on E. coli ATCC 25922 [2] and with E. coli UB1005 was greater than 128 µM in each case. Besides, the “MBC with FeCl3” value in the data set on E. coli ATCC 25922 [6] (E. coli ATCC 25922, 4 μM FeCl3) was greater than 128 µM. Besides, the “MBC with NH4Cl” value with E. coli ATCC 25922 [6] (E. coli ATCC 25922, 6 μM NH4Cl) is greater than 128 µM. For the same molecule, the “MBC with ZnCl2” value against E. coli ATCC 25922 [6] (E. coli ATCC 25922, 8 μM ZnCl2) is greater than 128 µM. The “MBC with MgCl2” value against E. coli ATCC 25922 [6] (E. coli ATCC 25922, 1 mM MgCl2) was greater than 128 µM. Moreover, the “MBC with CaCl2” value against E. coli ATCC 25922 [6] (E. coli ATCC 25922, 2 mM CaCl2) is greater than 128 µM. In addition, in the data set with E. coli ATCC 25922 [6] (E. coli ATCC 25922, 4.5 mM KCl), the “MBC with KCl” value was greater than 128 µM. The “MBC with NaCl” value against E. coli ATCC 25922 [6] (E. coli ATCC 25922, 150 mM NaCl) was greater than 128 µM. For the same molecule, the “MBC, control” value with E. coli ATCC 25922 [6] (E. coli ATCC 25922, without physiological salts) is greater than 128 µM.
AKLWLKAAKLWLKA-NH2 [AA2]: the “TI (therapeutic index), all strains” value in data set [3] is given as 12.70. Besides, in the data set with E. coli ATCC 25922 [7], the “FIC index in combination with Ceftazidime” value is 1, the “FIC index in combination with Chloramphenicol” value came out at 1, the “FIC index in combination with Ciprofloxacin” value is 0.75 and the “FIC index in combination with Streptomycin” value worked out at 0.5. The molecule also displayed a Minimum bactericidal concentration in the data set with S. epidermidis ATCC12228 of 32 µM. This molecule also returned a Minimum bactericidal concentration in data set [8] of 16 µM. In the data set on S. typhimurium ATCC14028, this molecule gave a Minimum bactericidal concentration of 16 µM. For the same molecule, the “TI (therapeutic index), gram-positive” value in data set [4] is recorded as 6.35. The molecule further returned a Minimum bactericidal concentration with S. aureus ATCC29213 of 16 µM. The Minimum bactericidal concentration with E. coli ATCC 25922 [2] was found to be 1 µM. The Minimum bactericidal concentration in the data set with E. coli UB1005 came to 8 µM. Further, in the data set with S. aureus ATCC 29213, the “MBC with CaCl2” value came out at 64 µM, the “MBC with FeCl3” value turned out to be 16 µM, the “MBC with KCl” value came to 16 µM and the “MBC with MgCl2” value worked out at 32 µM. In the data set on S. aureus ATCC 29213, the “MBC with NH4Cl” value stood at 8 µM; the “MBC with NaCl” value came to 128 µM; the “MBC with ZnCl2” value worked out at 8 µM; the “MBC, control” value was 16 µM. The “TI (therapeutic index), gram-negative” value in data set [5] amounted to 25.40. In the data set with E. coli ATCC 25922 [6] (ATCC 25922, 5 h), the “MBC with CaCl2” value is 4 µM, the “MBC with FeCl3” value was 1 µM, the “MBC with KCl” value came out at 1 µM and the “MBC with MgCl2” value amounted to 2 µM. In the data set on E. coli ATCC 25922 [6] (ATCC 25922, 5 h), the “MBC with NH4Cl” value is 1 µM; the “MBC with NaCl” value is 2 µM; the “MBC with ZnCl2” value was 1 µM; the “MBC, control” value is 1 µM. Further, the “MHC (minimum hemolytic concentration)” value in data set [9] came out at 128 µM.
As for GKLWLKGGKLWLKGGKLWLKG-NH2 [GG3], the “TI (therapeutic index), all strains” value in [3] was determined as 32. In the data set with E. coli ATCC 25922 [7], the “FIC index in combination with Ceftazidime” value was found to be 0.75, the “FIC index in combination with Chloramphenicol” value was 1, the “FIC index in combination with Ciprofloxacin” value stood at 1 and the “FIC index in combination with Streptomycin” value was determined as 0.5. In the data set on S. epidermidis ATCC12228, this molecule returned a Minimum bactericidal concentration of 32 µM. In data set [8], this molecule came in with a Minimum bactericidal concentration of 32 µM. In the data set on S. typhimurium ATCC14028, this molecule yielded a Minimum bactericidal concentration of 4 µM. Further, in [4], the “TI (therapeutic index), gram-positive” value turned out to be 10.08. In the data set on S. aureus ATCC29213, this molecule yielded a Minimum bactericidal concentration of 16 µM. The molecule further registered a Minimum bactericidal concentration with E. coli ATCC 25922 [2] of 2 µM. For the same molecule, the Minimum bactericidal concentration in the data set with E. coli UB1005 was found to be 2 µM. Moreover, in the data set on S. aureus ATCC 29213, the “MBC with CaCl2” value is 16 µM, the “MBC with FeCl3” value was found to be 16 µM, the “MBC with KCl” value is 8 µM and the “MBC with MgCl2” value was 16 µM. In the data set on S. aureus ATCC 29213, the “MBC with NH4Cl” value came to 16 µM; the “MBC with NaCl” value was determined as 16 µM; the “MBC with ZnCl2” value stood at 16 µM; the “MBC, control” value was determined as 16 µM. Moreover, the “TI (therapeutic index), gram-negative” value in data set [5] is 101.59. Further, in the data set on E. coli ATCC 25922 [6] (ATCC 25922, 5 h), the “MBC with CaCl2” value was 2 µM, the “MBC with FeCl3” value came to 1 µM, the “MBC with KCl” value was found to be 2 µM and the “MBC with MgCl2” value came out at 2 µM. Moreover, in the data set on E. coli ATCC 25922 [6] (ATCC 25922, 5 h), the “MBC with NH4Cl” value was 2 µM; the “MBC with NaCl” value came to 2 µM; the “MBC with ZnCl2” value amounted to 2 µM; the “MBC, control” value stood at 2 µM. Besides, the “MHC (minimum hemolytic concentration)” value in data set [9] was greater than 128 µM.

B1: Gly-rich centrosymmetric peptide GG3 (peptide)
peptide: GKLWLKGGKLWLKGGKLWLKG-NH2
modifications: not fully specified
notes: designed peptide from the template (y+hhh+y)n, three repeats of GKLWLKG; In the FRET experiment, FAM-labeled, TAMRA-labeled and unlabeled GG3 were mixed on lipid vesicles; also called FAM-labeled GG3; TAMRA-labeled GG3; source: synthetic peptide (GL Biochem Corporation, Shanghai)
Turning to B1, the binding result in data set [10] is on record as “binds”.

The record behind these values is paper PMC4632126, “High specific selectivity and Membrane-Active Mechanism of the synthetic centrosymmetric α-helical peptides with Gly-Gly pairs” (Scientific Reports, 2015).
